{"source": "patent US20230115534A1", "about": "(ARKUDA THERAPEUTICS, priority 2019, published 2023)", "system": "progranulin (PGRN)", "assay": "progranulin induction cellular assay (PGRN assay), ELISA-based readout", "conditions": "PGRN assay as described: mouse primary microglia, primary cortical neurons and BV-2 cell lines; secreted mouse PGRN in medium by ELISA; cell type for Table B not specified", "experimental": "Cellular Assays: To measure the efficacy of compounds, a progranulin induction cellular assay in mouse primary microglia (pMG), primary cortical neurons, and BV-2 cell lines is used. BV-2 cells are split the day before plating into a 96 well plate format at approximately 80%. Cells should be plated the day before and allowed for 1 hour attachment period and for 16 hour incubation. Levels of progranulin secreted into the cell culture medium or retained in the cell lysate can be quantified using an ELISA-based readout and measurement of secreted mouse PGRN in the medium was assessed by the methodology published by Ghidoni et al. 2012. Standard ELISA kits to measure PGRN are available from vendors such as Adipogen, R&D, and Biovendor.\nTable B below presents the results of a PGRN assay as described above.", "note": "Counter-ions that a name gives are not always drawn.", "data": [{"smiles": "O=C(NC12CC(NS(=O)(=O)C(F)(F)F)(C1)C2)N1CCc2ccccc2[C@@H]1c1ccc(F)cc1", "note": "[Compound 4020, (S)-1-(4-fluorophenyl)-N-(3-((trifluoromethyl)sulfonamido)bicyclo[1.1.1]pentan-1-yl)-3,4-dihydroisoquinoline-2(1H)-carboxamide]", "values": [{"measurement": "EC50", "result": 3.29, "unit": "µM"}]}, {"smiles": "NC[C@H]1C[C@@H](NC(=O)N2CCc3ccccc3[C@@H]2c2ccc(F)cc2)C1", "note": "[Compound 4032, (S)—N-(cis-3-(aminomethyl)cyclobutyl)-1-(4-fluorophenyl)-3,4-dihydroisoquinoline-2(1H)-carboxamide]", "values": [{"measurement": "EC50", "result": "> 10", "unit": "µM"}]}, {"smiles": "C#CCNC12CC(N(CC#C)C(=O)N3CCc4ccccc4[C@@H]3c3ccc(F)cc3)(C1)C2", "note": "[Compound 4006, (S)-1-(4-fluorophenyl)-N-(prop-2-yn-1-yl)-N-(3-(prop-2-yn-1-ylamino)bicyclo[1.1.1]pentan-1-yl)-3,4-dihydroisoquinoline-2(1H)-carboxamide]", "values": [{"measurement": "EC50", "result": "> 10", "unit": "µM"}]}, {"smiles": "NC12CC(OC(=O)N3CCc4ccccc4[C@@H]3c3ccccc3)(C1)C2", "note": "[Compound 4136, 3-aminobicyclo[1.1.1]pentan-1-yl (S)-1-phenyl-3,4-dihydroisoquinoline-2(1H)-carboxylate]", "values": [{"measurement": "EC50", "result": 0.604, "unit": "µM"}]}, {"smiles": "N[C@H]1CC[C@H](C(=O)N2CCc3ccccc3[C@@H]2c2ccc(F)cc2)CC1", "note": "[Compound 4144]", "values": [{"measurement": "EC50", "result": 3.12, "unit": "µM"}]}, {"smiles": "O=C(NC12CC(NCC(F)(F)F)(C1)C2)N1CCc2ccccc2[C@@H]1c1ccc(F)cc1", "note": "[Compound 4023, (S)-1-(4-fluorophenyl)-N-(3-((2,2,2-trifluoroethyl)amino)bicyclo[1.1.1]pentan-1-yl)-3,4-dihydroisoquinoline-2(1H)-carboxamide]", "values": [{"measurement": "EC50", "result": "> 10", "unit": "µM"}]}, {"smiles": "NC12CC(NC(=O)N3CCc4ccccc4C3c3ccc(F)cc3F)(C1)C2", "note": "(single isomer, unassigned) [Compound 4138, N-(3-aminobicyclo[1.1.1]pentan-1-yl)-1-(2,4-difluorophenyl)-3,4-dihydroisoquinoline-2(1H)-carboxamide]", "values": [{"measurement": "EC50", "result": 5.59, "unit": "µM"}]}, {"smiles": "N[C@H]1C[C@H](CNC(=O)N2CCc3ccccc3[C@@H]2c2ccc(F)cc2)C1", "note": "[Compound 4029, Trans-(S)—N-((3-aminocyclobutyl)methyl)-1-(4-fluorophenyl)-3,4-dihydroisoquinoline-2(1H)-carboxamide]", "values": [{"measurement": "EC50", "result": 3.4, "unit": "µM"}]}, {"smiles": "CS(=O)(=O)NC12CC(OC(=O)N3CCc4ccccc4[C@@H]3c3ccc(F)cc3)(C1)C2", "note": "[Compound 4018, 3-(Methylsulfonamido)bicyclo[1.1.1]pentan-1-yl (S)-1-(4-fluorophenyl)-3,4-dihydroisoquinoline-2(1H)-carboxylate]", "values": [{"measurement": "EC50", "result": "> 10", "unit": "µM"}]}, {"smiles": "CN[C@H]1C[C@H](NC(=O)N2CCc3ccccc3[C@@H]2c2ccc(F)cc2)C1", "note": "[Compound 4043, (S)-1-(4-fluorophenyl)-N-(trans-3-(methylamino)cyclobutyl)-3,4-dihydroisoquinoline-2(1H)-carboxamide hydrochloride]", "values": [{"measurement": "EC50", "result": 0.9, "unit": "µM"}]}, {"smiles": "NC12CC(NC(=O)N3CCc4ccccc4[C@H]3c3ccc(F)cc3)(C1)C2", "note": "[Compound 4003, (R)—N-(3-aminobicyclo[1.1.1]pentan-1-yl)-1-(4-fluorophenyl)-3,4-dihydroisoquinoline-2(1H)-carboxamide]", "values": [{"measurement": "EC50", "result": 0.72, "unit": "µM"}]}, {"smiles": "CN(C)[C@H]1C[C@@H](OC(=O)N2CCc3ccccc3[C@@H]2c2ccc(F)cc2)C1", "note": "[Compound 4127]", "values": [{"measurement": "EC50", "result": 0.773, "unit": "µM"}]}, {"smiles": "NC12CC(NC(=O)N3CCc4ccccc4[C@@H]3c3ccc(F)cc3)(C1)C2", "note": "[Compound 4002, (S)—N-(3-aminobicyclo[1.1.1]pentan-1-yl)-1-(4-fluorophenyl)-3,4-dihydroisoquinoline-2(1H)-carboxamide]", "values": [{"measurement": "EC50", "result": 0.266, "unit": "µM"}]}, {"smiles": "N[C@]1(CO)C[C@@H](C(=O)N2CCc3ccccc3[C@@H]2c2ccc(F)cc2)C1", "note": "[Compound 4152, (trans-3-amino-3-(hydroxymethyl)cyclobutyl)((S)-1-(4-fluorophenyl)-3,4-dihydroisoquinolin-2(1H)-yl)methanone]", "values": [{"measurement": "EC50", "result": 0.245, "unit": "µM"}]}, {"smiles": "NC[C@H]1C[C@@H](C(=O)N2CCc3ccccc3[C@@H]2c2ccc(F)cc2)C1", "note": "[Compound 4150, (cis-3-(aminomethyl)cyclobutyl)((S)-1-(4-fluorophenyl)-3,4-dihydroisoquinolin-2(1H)-yl)methanone]", "values": [{"measurement": "EC50", "result": 0.079, "unit": "µM"}]}, {"smiles": "CNC1(COC(=O)N2CCc3ccccc3[C@@H]2c2ccc(F)cc2)CC1", "note": "[Compound 4051, (1-(Methylamino)cyclopropyl)methyl (S)-1-(4-fluorophenyl)-3,4-dihydroisoquinoline-2(1H)-carboxylate hydrochloride]", "values": [{"measurement": "EC50", "result": 0.46, "unit": "µM"}]}, {"smiles": "CS(=O)(=O)CCNC12CC(N(CCS(C)(=O)=O)C(=O)N3CCc4ccccc4[C@@H]3c3ccc(F)cc3)(C1)C2", "note": "[Compound 4008, (S)-1-(4-fluorophenyl)-N-(2-(methylsulfonyl)ethyl)-N-(3-((2-(methylsulfonyl)ethyl)amino)bicyclo[1.1.1]pentan-1-yl)-3,4-dihydroisoquinoline-2(1H)-carboxamide]", "values": [{"measurement": "EC50", "result": "> 10", "unit": "µM"}]}, {"smiles": "N[C@H]1C[C@H](NC(=O)N2CCc3ccccc3[C@@H]2c2ccc(F)cc2)C1", "note": "[Compound 4035, (S)—N-(trans-3-aminocyclobutyl)-1-(4-fluorophenyl)-3,4-dihydroisoquinoline-2(1H)-carboxamide hydrochloride]", "values": [{"measurement": "EC50", "result": 0.49, "unit": "µM"}]}, {"smiles": "CS(=O)(=O)CCNC12CC(OC(=O)N3CCc4ccccc4[C@@H]3c3ccc(F)cc3)(C1)C2", "note": "[Compound 4027, 3-((2-(Methylsulfonyl)ethyl)amino)bicyclo[1.1.1]pentan-1-yl (S)-1-(4-fluorophenyl)-3,4-dihydroisoquinoline-2(1H)-carboxylate hydrochloride]", "values": [{"measurement": "EC50", "result": 1.06, "unit": "µM"}]}, {"smiles": "O=C(NC12CC(N3CCCC3)(C1)C2)N1CCc2ccccc2[C@@H]1c1ccc(F)cc1", "note": "[Compound 4012, (S)-1-(4-fluorophenyl)-N-(3-(pyrrolidin-1-yl)bicyclo[1.1.1]pentan-1-yl)-3,4-dihydroisoquinoline-2(1H)-carboxamide]", "values": [{"measurement": "EC50", "result": 7.81, "unit": "µM"}]}, {"smiles": "CN(C)[C@H]1C[C@@H](NC(=O)N2CCc3ccccc3[C@@H]2c2ccc(F)cc2)C1", "note": "[Compound 4069]", "values": [{"measurement": "EC50", "result": 0.672, "unit": "µM"}]}, {"smiles": "CC(=O)NC12CC(NC(=O)N3CCc4ccccc4[C@@H]3c3ccc(F)cc3)(C1)C2", "note": "[Compound 4016, (S)—N-(3-acetamidobicyclo[1.1.1]pentan-1-yl)-1-(4-fluorophenyl)-3,4-dihydroisoquinoline-2(1H)-carboxamide]", "values": [{"measurement": "EC50", "result": "> 10", "unit": "µM"}]}, {"smiles": "CN(C(=O)N1CCc2ccccc2[C@@H]1c1ccc(F)cc1)C12CC(N)(C1)C2", "note": "[Compound 4010, (S)—N-(3-aminobicyclo[1.1.1]pentan-1-yl)-1-(4-fluorophenyl)-N-methyl-3,4-dihydroisoquinoline-2(1H)-carboxamide]", "values": [{"measurement": "EC50", "result": "> 10", "unit": "µM"}]}, {"smiles": "CCN[C@H]1C[C@H](OC(=O)N2CCc3ccccc3[C@@H]2c2ccc(F)cc2)C1", "note": "[Compound 4130]", "values": [{"measurement": "EC50", "result": 0.74, "unit": "µM"}]}, {"smiles": "CN(C)[C@H]1C[C@@H](NC(=O)N2CCc3ccccc3[C@@H]2c2ccc(F)cc2)C1", "note": "[Compound 4068]", "values": [{"measurement": "EC50", "result": 0.29, "unit": "µM"}]}, {"smiles": "CN(C)C12CC(NC(=O)N3CCc4ccccc4[C@@H]3c3ccc(F)cc3)(C1)C2", "note": "[Compound 4022, (S)—N-(3-(dimethylamino)bicyclo[1.1.1]pentan-1-yl)-1-(4-fluorophenyl)-3,4-dihydroisoquinoline-2(1H)-carboxamide]", "values": [{"measurement": "EC50", "result": 5.33, "unit": "µM"}]}, {"smiles": "NC[C@H]1C[C@H](OC(=O)N2CCc3ccccc3[C@@H]2c2ccc(F)cc2)C1", "note": "[Compound 4031, Trans-3-(aminomethyl)cyclobutyl (S)-1-(4-fluorophenyl)-3,4-dihydroisoquinoline-2(1H)-carboxylate]", "values": [{"measurement": "EC50", "result": "> 10", "unit": "µM"}]}, {"smiles": "N[C@H]1C[C@@H](CC(=O)N2CCc3ccccc3[C@@H]2c2ccc(F)cc2)C1", "note": "[Compound 4121]", "values": [{"measurement": "EC50", "result": 0.365, "unit": "µM"}]}, {"smiles": "CS(=O)(=O)CCNC12CC(NC(=O)N3CCc4ccccc4[C@@H]3c3ccc(F)cc3)(C1)C2", "note": "[Compound 4007, (S)-1-(4-fluorophenyl)-N-(3-((2-(methylsulfonyl)ethyl)amino)bicyclo[1.1.1]pentan-1-yl)-3,4-dihydroisoquinoline-2(1H)-carboxamide 2,2,2-trifluoroacetate]", "values": [{"measurement": "EC50", "result": "> 10", "unit": "µM"}]}, {"smiles": "NC12CC(NC(=O)N3CCc4ccccc4[C@@H]3c3ccccc3)(C1)C2", "note": "[Compound 4135, (S)—N-(3-aminobicyclo[1.1.1]pentan-1-yl)-1-phenyl-3,4-dihydroisoquinoline-2(1H)-carboxamide]", "values": [{"measurement": "EC50", "result": 1.61, "unit": "µM"}]}, {"smiles": "NC[C@H]1C[C@@H](OC(=O)N2CCc3ccccc3[C@@H]2c2ccc(F)cc2)C1", "note": "[Compound 4030, Cis-3-(aminomethyl)cyclobutyl (S)-1-(4-fluorophenyl)-3,4-dihydroisoquinoline-2(1H)-carboxylate]", "values": [{"measurement": "EC50", "result": 9.64, "unit": "µM"}]}, {"smiles": "CN[C@H]1C[C@@H](N(C)C(=O)N2CCc3ccccc3[C@@H]2c2ccc(F)cc2)C1", "note": "[Compound 4067]", "values": [{"measurement": "EC50", "result": 0.913, "unit": "µM"}]}, {"smiles": "NC[C@@H]1CC[C@@H]1OC(=O)N1CCc2ccccc2[C@@H]1c1ccc(F)cc1", "note": "[Compound 4124]", "values": [{"measurement": "EC50", "result": 0.347, "unit": "µM"}]}, {"smiles": "N[C@H]1C[C@H](OC(=O)N2CCc3ccccc3[C@@H]2c2ccc(F)cc2)C1", "note": "[Compound 4036, Trans-3-aminocyclobutyl (S)-1-(4-fluorophenyl)-3,4-dihydroisoquinoline-2(1H)-carboxylate hydrochloride]", "values": [{"measurement": "EC50", "result": 1.12, "unit": "µM"}]}, {"smiles": "N[C@H]1C[C@@H](C(=O)N2CCc3ccccc3[C@@H]2c2ccc(F)cc2)C1", "note": "[Compound 4148, (cis-3-aminocyclobutyl)((S)-1-(4-fluorophenyl)-3,4-dihydroisoquinolin-2(1H)-yl)methanone]", "values": [{"measurement": "EC50", "result": 0.092, "unit": "µM"}]}, {"smiles": "O=C(NC12CC(N3CCOCC3)(C1)C2)N1CCc2ccccc2[C@@H]1c1ccc(F)cc1", "note": "[Compound 4013, (S)-1-(4-fluorophenyl)-N-(3-morpholinobicyclo[1.1.1]pentan-1-yl)-3,4-dihydroisoquinoline-2(1H)-carboxamide]", "values": [{"measurement": "EC50", "result": "> 10", "unit": "µM"}]}]}
